The text below walks through data of patent US11708359B2, “Monoacylglycerol lipase modulators” (Janssen Pharmaceutica NV, priority 2020, dated 2023).

The assay has as its target human MGL from HeLa cells (Homo sapiens (Human), UniProt Q99685). As to the kind of experiment: MGL in vitro activity assay ([glycerol-1,3-3H]-oleoyl glycerol cleavage, activated carbon filter). It counts as biochemical. To be noted: 300 nM [Glycerol-1,3-3H]-oleoyl glycerol, endogenously expressed MGL from HeLa cells, one hour incubation; read-out: MGL IC50. An outline of the steps: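 Endogenous MGL in HeLa cells or homogenates was incubated with compound and 300 nM [glycerol-1,3-3H]-oleoyl glycerol for one hour. Reactions were filtered through activated carbon, and tritiated glycerol in the flow-through was counted as a measure of activity.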

The term IC50 denotes the concentration at which inhibition is half-maximal.

Chain of human MGL from HeLa cells (Q99685 whole entry): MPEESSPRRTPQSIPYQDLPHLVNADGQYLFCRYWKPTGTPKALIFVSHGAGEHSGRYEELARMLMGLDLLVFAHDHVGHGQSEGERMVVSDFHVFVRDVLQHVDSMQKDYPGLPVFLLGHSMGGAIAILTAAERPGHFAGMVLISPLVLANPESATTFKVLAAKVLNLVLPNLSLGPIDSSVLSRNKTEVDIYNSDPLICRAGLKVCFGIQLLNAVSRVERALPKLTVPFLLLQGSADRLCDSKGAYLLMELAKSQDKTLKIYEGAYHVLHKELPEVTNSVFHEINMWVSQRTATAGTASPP

Take `CC(C)(C)c1cccc([C@@H]2[C@H]3CN(C(=O)[C@H]4C[C@]5(COC(=O)N5)C4)C[C@]32C)c1` (stereo in doubt) [Example 100, (2s,4*R)-2-((1*S,5*R,6*5)-6-(3-(tert-Butyl)phenyl)-1-methyl-3-azabicyclo[3.1.0]hexane-3-carbonyl)-7-oxa-5-azaspiro[3.4]octan-6-one]: the IC50 was 8.3 nM.
The figure for `O=C1N[C@]2(CO1)C[C@H](C(=O)N1C[C@@H]3[C@H](C1)[C@H]3c1cccc(OC(F)(F)F)c1)C2` [Example 38, (2s,4S)-2-((1R,5S,6S)-6-(3-(Trifluoromethoxy)phenyl)-3-azabicyclo[3.1.0]hexane-3-carbonyl)-7-oxa-5-azaspiro[3.4]octan-6-one] is 21 nM; for `O=C1N[C@]2(CO1)C[C@H](C(=O)N1CC[C@@]3(c4ccccc4)C[C@H]3C1)C2` [Example 40, (2s,4S)-2-((1R,6S)-6-Phenyl-3-azabicyclo[4.1.0]heptane-3-carbonyl)-7-oxa-5-azaspiro[3.4]octan-6-one] it is 136 nM; for `O=C1N[C@]2(CO1)C[C@H](C(=O)N1CC[C@]3(c4ccccc4)C[C@@H]3C1)C2` [Example 41, (2s,4R)-2-((1S,6R)-6-Phenyl-3-azabicyclo[4.1.0]heptane-3-carbonyl)-7-oxa-5-azaspiro[3.4]octan-6-one] it is 9.6 nM.
The result for `CC(C)(C)c1cccc([C@H]2[C@@H]3CN(C(=O)[C@H]4C[C@]5(CCC(=O)N5)C4)C[C@@H]32)c1` [Example 79, (2r,4S)-2-((1R,5S,6S)-6-(3-(tert-Butyl)phenyl)-3-azabicyclo[3.1.0]hexane-3-carbonyl)-5-azaspiro[3.4]octan-6-one] reads 7.2 nM; that for `O=C1N[C@]2(CO1)C[C@H](C(=O)N1C[C@@H]3[C@H](C1)[C@H]3c1ccc(C(F)(F)F)cc1)C2` [Example 80, (2s,4S)-2-((1R,5S,6S)-6-(4-(Trifluoromethyl)phenyl)-3-azabicyclo[3.1.0]hexane-3-carbonyl)-7-oxa-5-azaspiro[3.4]octan-6-one], 33 nM; that for `O=C1CC[C@]2(C[C@H](C(=O)N3C[C@@H]4[C@H](C3)[C@H]4c3ccc(C(F)(F)F)cc3)C2)N1` [Example 81, (2r,4S)-2-((1R,5S,6S)-6-(4-(Trifluoromethyl)phenyl)-3-azabicyclo[3.1.0]hexane-3-carbonyl)-5-azaspiro[3.4]octan-6-one], 206 nM.
The result for `CC(C)(C)c1ccc([C@H]2[C@@H]3CN(C(=O)[C@H]4C[C@]5(CCC(=O)N5)C4)C[C@@H]32)cc1` [Example 83, (2r,4S)-2-((1R,5S,6S)-6-(4-(tert-Butyl)phenyl)-3-azabicyclo[3.1.0]hexane-3-carbonyl)-5-azaspiro[3.4]octan-6-one] reads 2.9 nM; that for `CC(C)c1cccc([C@H]2[C@@H]3CN(C(=O)[C@H]4C[C@]5(COC(=O)N5)C4)C[C@@H]32)c1` [Example 84, (2s,4S)-2-((1R,5S,6S)-6-(3-Isopropylphenyl)-3-azabicyclo[3.1.0]hexane-3-carbonyl)-7-oxa-5-azaspiro[3.4]octan-6-one], 5.5 nM; that for `Cc1ccc([C@H]2[C@@H]3CN(C(=O)[C@H]4C[C@]5(COC(=O)N5)C4)C[C@@H]32)cc1C(F)(F)F` [Example 85, (2s,4S)-2-((1R,5S,6S)-6-(4-Methyl-3-(trifluoromethyl)phenyl)-3-azabicyclo[3.1.0]hexane-3-carbonyl)-7-oxa-5-azaspiro[3.4]octan-6-one], 4.4 nM.
With `CCc1ccc([C@H]2[C@@H]3CN(C(=O)[C@H]4C[C@]5(COC(=O)N5)C4)C[C@@H]32)cc1` [Example 86, (2s,4S)-2-((1R,5S,6S)-6-(4-Ethylphenyl)-3-azabicyclo[3.1.0]hexane-3-carbonyl)-7-oxa-5-azaspiro[3.4]octan-6-one], the IC50 is 25 nM.
